The source of these data is US12054486B2, “Pyridine derivatives and their use as sodium channel activators” (Xenon Pharmaceuticals Inc., priority 2021, dated 2024).

pEC50: −log10 of the molar value. Some results are limits rather than exact numbers.

This assay addresses sodium channel isoforms of interest stably expressed in Human Embryonic Kidney Cells (voltage-gated sodium channel, particularly NaV1.1) (Homo sapiens, UniProt P35498). The assay can be described thus: automated planar patch clamp assay of sodium channel gating (area under the sodium current trace). Format: cell-based. The following applies: HEK cells, voltage step from −120 mV to 0 mV, increasing concentrations. From the text: A typical assay described in Crestey, F. et al., ACS Chem Neurosci (2015), Vol. 6, pp. 1302-1308, AA43279 (Frederiksen, K. et al., Eur J Neurosci (2017), Vol. 46, pp. 1887-1896) and Lu AE98134 (von Schoubyea, N. L. et al., Neurosci Lett (2018), Vol. 662, pp. 29-35) employs the use of automated planar patch clamp techniques to study the effects of the chemical agent on the gating of sodium channels. The sodium channel isoforms of interest are stably expressed in Human Embryonic Kidney Cells and the currents that flow through those channels in response to a depolarizing voltage clamp step from −120 mV to 0 mV are measured in the presence of increasing concentrations of the chemical agents. The area under the sodium current trace which correlates to the magnitude of sodium flux through the cell membrane is used to quantify the effects on gating of the channels. Other parameters that are measured in the assay include the peak current, time constant of open state inactivation and the voltage dependence of steady state inactivation properties. The concentration responses are used to determine potency of each chemical agents effects on modulating the sodium channel isoform gating. Such techniques are known to those skilled in the art, and may be developed, using current technologies, into low or medium throughput assays for evaluating compounds for their ability to modulate sodium channel behaviour.
As disclosed above, typical assays for testing compounds of the disclosure are known, for example as disclosed in Crestey, F. et al., ACS Chem Neurosci (2015), Vol. 6, pp. 1302-1308, AA43279 (Frederiksen, K. et al., Eur J Neurosci (2017), Vol. 46, pp. 1887-1896) and Lu AE98134 (von Schoubyea, N. L. et al., Neurosci Lett (2018), Vol. 662, pp. 29-35) which employs the use of automated planar patch clamp techniques to study the effects of the chemical agent on the gating of sodium channels. The sodium channel isoforms of interest are stably expressed in Human Embryonic Kidney Cells and the currents that flow through those channels in response to a depolarizing voltage clamp step from −120 mV to 0 mV are measured in the presence of increasing concentrations of the chemical agents. The area under the sodium current trace which correlates to the magnitude of sodium flux through the cell membrane is used to quantify the effects on gating of the channels. Other parameters that are measured in the assay include the peak current, time constant of open state inactivation and the voltage dependence of steady state inactivation properties. The concentration responses are used to determine potency of each chemical agents effects on modulating the sodium channel isoform gating.
As to `FC1(F)CC2(CN(c3nccc(-c4ccccc4)c3-c3nc4c([nH]3)COCC4)C2)C1` [Example 50, 2-(2-(6,6-difluoro-2-azaspiro[3.3]heptan-2-yl)-4-phenylpyridin-3-yl)-3,4,6,7-tetrahydropyrano[3,4-d]imidazole], the pEC50 is 4.30 to 5.00 and the “Empirical Emax” value is listed as “++ (++ indicates a value from 2.0 up to 5.0 μM)”.
On the same counts, the results for `FC(F)(F)C1(CNc2nccc(-c3ccccc3)c2-c2nc3c([nH]2)COCC3)CCC1` [Example 51, 4-phenyl-3-(3,4,6,7-tetrahydropyrano[3,4-d]imidazol-2-yl)-N-((1-(trifluoromethyl)cyclobutyl)methyl)pyridin-2-amine] are above 6.00 and “+ (+ indicates a value less than 2.0 μM)”.
With `CC1(C)Cc2nc(-c3c(-c4ccccc4)ccnc3N3CCC(F)(F)C3)[nH]c2CO1` [Example 52, 2-(2-(3,3-difluoropyrrolidin-1-yl)-4-phenylpyridin-3-yl)-6,6-dimethyl-3,4,6,7-tetrahydropyrano[3,4-d]imidazole], the pEC50 was above 6.00 and the “Empirical Emax” value is recorded as “+++ (+++ indicates a value from 5.0 up to 7.5 μM)”.
For `FC1(F)CCN(c2nccc(-c3ccccc3)c2-c2nc3c([nH]2)COC2(CCC2)C3)C1` [Example 53, 2′-(2-(3,3-difluoropyrrolidin-1-yl)-4-phenylpyridin-3-yl)-4′,7′-dihydro-3′H-spiro[cyclobutane-1,6′-pyrano[3,4-d]imidazole]], the pEC50 is 5.00 to 6.00 and the “Empirical Emax” value was “++ (++ indicates a value from 2.0 up to 5.0 μM)”.
On the same counts, the results for `CC1(C)OCCc2nc(-c3c(-c4ccccc4)ccnc3N3CCC(F)(F)C3)[nH]c21` [Example 54, 2-(2-(3,3-difluoropyrrolidin-1-yl)-4-phenylpyridin-3-yl)-4,4-dimethyl-3,4,6,7-tetrahydropyrano[3,4-d]imidazole] are 5.00 to 6.00 and “+++ (+++ indicates a value from 5.0 up to 7.5 μM)”.
On the same counts, the results for `CC(C)(C)OC(=O)N1CCc2nc(-c3c(-c4ccccc4)ccnc3N3CCC(F)(F)C3)[nH]c2C1` [Example 55, Tert-Butyl 2-[2-(3,3-difluoropyrrolidin-1-yl)-4-phenyl-3-pyridyl]-3,4,6,7-tetrahydroimidazo[4,5-c]pyridine-5-carboxylate] are above 6.00 and “+++ (+++ indicates a value from 5.0 up to 7.5 μM)”.
The corresponding values for `Fc1ccc(F)c(-c2ccnc(N3CC[C@H](F)C3)c2-c2nc3c([nH]2)COCC3)c1` [Example 56, (S)-2-(4-(2,5-difluorophenyl)-2-(3-fluoropyrrolidin-1-yl)pyridin-3-yl)-3,4,6,7-tetrahydropyrano[3,4-d]imidazole] are 5.00 to 6.00 and “++++ (++++ indicates a value greater than 7.5)”.
`CC1(C)Cc2nc(-c3c(-c4cc(F)ccc4F)ccnc3N3CCC(F)(F)C3)[nH]c2CO1` [Example 57, 2-(4-(2,5-difluorophenyl)-2-(3,3-difluoropyrrolidin-1-yl)pyridin-3-yl)-6,6-dimethyl-3,4,6,7-tetrahydropyrano[3,4-d]imidazole]: the pEC50 is above 6.00 and the “Empirical Emax” value is recorded as “++++ (++++ indicates a value greater than 7.5)”.
The corresponding values for `COC1CCc2nc(-c3c(-c4ccccc4)ccnc3N3CC[C@H](F)C3)[nH]c2C1` (stereo partly drawn) [Example 58, 2-(2-((S)-3-fluoropyrrolidin-1-yl)-4-phenylpyridin-3-yl)-6-methoxy-4,5,6,7-tetrahydro-1H-benzo[d]imidazole] are 5.00 to 6.00 and “++ (++ indicates a value from 2.0 up to 5.0 μM)”.
On the same counts, the results for `COC1CCc2nc(-c3c(-c4ccccc4)ccnc3N3CCC(F)(F)C3)[nH]c2C1` (centres unmarked) [Example 59, 2-(2-(3,3-difluoropyrrolidin-1-yl)-4-phenylpyridin-3-yl)-6-methoxy-4,5,6,7-tetrahydro-1H-benzo[d]imidazole] are above 6.00 and “++ (++ indicates a value from 2.0 up to 5.0 μM)”.
The corresponding values for `FC1(F)CCN(c2nccc(-c3ccccc3)c2-c2nc3c([nH]2)CCCC3)C1` [Example 60, 2-(2-(3,3-difluoropyrrolidin-1-yl)-4-phenylpyridin-3-yl)-4,5,6,7-tetrahydro-1H-benzo[d]imidazole] are above 6.00 and “++ (++ indicates a value from 2.0 up to 5.0 μM)”.
For the molecule `Cc1[nH]c(-c2c(-c3ccccc3)ccnc2N2CCC(F)(F)C2)nc1-c1ccccc1` [Example 61, 2-(3,3-difluoropyrrolidin-1-yl)-3-(5-methyl-4-phenyl-1H-imidazol-2-yl)-4-phenylpyridine], the pEC50 is 5.00 to 6.00 and the “Empirical Emax” value was “++ (++ indicates a value from 2.0 up to 5.0 μM)”.
The corresponding values for `CC(C)(C)c1nc(-c2c(-c3ccccc3)ccnc2N2CCC(F)(F)C2)no1` [Example 62, 5-(tert-butyl)-3-(2-(3,3-difluoropyrrolidin-1-yl)-4-phenylpyridin-3-yl)-1,2,4-oxadiazole] are 5.00 to 6.00 and “+ (+ indicates a value less than 2.0 μM)”.
As to `OC1Cc2nc(-c3c(-c4ccccc4)ccnc3N3CCC(F)(F)C3)[nH]c2C1` [Example 63, 2-(2-(3,3-difluoropyrrolidin-1-yl)-4-phenylpyridin-3-yl)-1,4,5,6-tetrahydrocyclopenta[d]imidazol-5-ol], the pEC50 was 5.00 to 6.00 and the “Empirical Emax” value was “++ (++ indicates a value from 2.0 up to 5.0 μM)”.
On the same counts, the results for `c1ccc(-c2ccnc(N3CCOCC3)c2-c2nc3c([nH]2)COCC3)cc1` [Example 64, 2-(2-morpholino-4-phenylpyridin-3-yl)-3,4,6,7-tetrahydropyrano[3,4-d]imidazole] are 4.30 to 5.00 and “+ (+ indicates a value less than 2.0 μM)”.
The corresponding values for `FC1(F)CN(c2nccc(-c3ccccc3)c2-c2nc3c([nH]2)COCC3)C1` [Example 65, 2-(2-(3,3-difluoroazetidin-1-yl)-4-phenylpyridin-3-yl)-3,4,6,7-tetrahydropyrano[3,4-d]imidazole] are at most 4.30 and “++ (++ indicates a value from 2.0 up to 5.0 μM)”.
Consider `c1ccc(-c2ccnc(N3CC4(COC4)C3)c2-c2nc3c([nH]2)COCC3)cc1` [Example 66, 2-(4-phenyl-2-(2-oxa-6-azaspiro[3.3]heptan-6-yl)pyridin-3-yl)-3,4,6,7-tetrahydropyrano[3,4-d]imidazole], for which the pEC50 is 5.00 to 6.00 and the “Empirical Emax” value is listed as “+++ (+++ indicates a value from 5.0 up to 7.5 μM)”.
The corresponding values for `c1ccc(-c2ccnc(OC3CCC3)c2-c2nc3c([nH]2)COCC3)cc1` [Example 67, 2-(2-cyclobutoxy-4-phenylpyridin-3-yl)-3,4,6,7-tetrahydropyrano[3,4-d]imidazole] are at most 4.30 and “+ (+ indicates a value less than 2.0 μM)”.
On the same counts, the results for `F[C@H]1CCN(c2nccc(-c3ccccc3)c2-c2nc3ccccc3o2)C1` [Example 68, (S)-2-(2-(3-fluoropyrrolidin-1-yl)-4-phenylpyridin-3-yl)benzo[d]oxazole] are at most 4.30 and “+ (+ indicates a value less than 2.0 μM)”.
On the same counts, the results for `F[C@H]1CCN(c2nccc(-c3ccccc3)c2-c2nc(-c3ccccc3)n[nH]2)C1` [Example 69, (S)-2-(3-fluoropyrrolidin-1-yl)-4-phenyl-3-(3-phenyl-1H-1,2,4-triazol-5-yl)pyridine] are 5.00 to 6.00 and “++ (++ indicates a value from 2.0 up to 5.0 μM)”.
`Fc1ccccc1-c1ccnc(N2CCC(F)(F)C2)c1-c1nc2c([nH]1)COCC2` [Example 72, 2-[2-(3,3-difluoropyrrolidin-1-yl)-4-(2-fluorophenyl)-3-pyridyl]-1,4,6,7-tetrahydropyrano[3,4-d]imidazole]: the pEC50 was above 6.00 and the “Empirical Emax” value was “++++ (++++ indicates a value greater than 7.5)”.
On the same counts, the results for `Fc1ccc(F)c(-c2ccnc(N3CCC(F)(F)C3)c2-c2nc3c([nH]2)CCOC3)c1` [Example 73, 2-[4-(2,5-difluorophenyl)-2-(3,3-difluoropyrrolidin-1-yl)-3-pyridyl]-1,4,6,7-tetrahydropyrano[3,4-d]imidazole] are above 6.00 and “+++ (+++ indicates a value from 5.0 up to 7.5 μM)”.
